Assay results published in ChEMBL document CHEMBL4706518, “Discovery of MGS0274, an ester prodrug of a metabotropic glutamate receptor 2/3 agonist with improved oral bioavailability” (Eur J Med Chem, 2020).
Calls of active or inactive are those of the source.

Experiments:
[1] = target: Substance-P receptor (Homo sapiens) (UniProt P25103); assay: Binding affinity to NK1 receptor (unknown origin) 10 umol/L by radioligand binding assay; details: dose 10.0 µmol/L
[2] = target: D(1B) dopamine receptor (Homo sapiens) (UniProt P21918); assay: Binding affinity to D5 receptor (unknown origin) 10 umol/L by radioligand binding assay; details: dose 10.0 µmol/L
[3] = target: Alpha-2C adrenergic receptor (Homo sapiens) (UniProt P18825); assay: Binding affinity to alpha2C adrenoreceptor (unknown origin) 10 umol/L by radioligand binding assay; details: dose 10.0 µmol/L
Homo sapiens [4] = species: Homo sapiens; assay: Binding affinity to Leukotriene B4 receptor (unknown origin) 10 umol/L by radioligand binding assay; details: dose 10.0 µmol/L
Homo sapiens [5] = species: Homo sapiens; assay: Binding affinity to AMPA receptor (unknown origin) 10 umol/L by radioligand binding assay; details: dose 10.0 µmol/L
Homo sapiens [6] = species: Homo sapiens; assay: Binding affinity to Voltage-dependent N-type calcium channel (unknown origin) 10 umol/L by radioligand binding assay; details: dose 10.0 µmol/L
[7] = target: Type-1 angiotensin II receptor (Homo sapiens) (UniProt P30556); assay: Binding affinity to AT1 receptor (unknown origin) 10 umol/L by radioligand binding assay; details: dose 10.0 µmol/L
[8] = target: Corticotropin-releasing factor receptor 1 (Homo sapiens) (UniProt P34998); assay: Binding affinity to CRF1(unknown origin) 10 umol/L by radioligand binding assay; details: dose 10.0 µmol/L
Chain of Corticotropin-releasing factor receptor 1 (Homo sapiens) (P34998 whole entry): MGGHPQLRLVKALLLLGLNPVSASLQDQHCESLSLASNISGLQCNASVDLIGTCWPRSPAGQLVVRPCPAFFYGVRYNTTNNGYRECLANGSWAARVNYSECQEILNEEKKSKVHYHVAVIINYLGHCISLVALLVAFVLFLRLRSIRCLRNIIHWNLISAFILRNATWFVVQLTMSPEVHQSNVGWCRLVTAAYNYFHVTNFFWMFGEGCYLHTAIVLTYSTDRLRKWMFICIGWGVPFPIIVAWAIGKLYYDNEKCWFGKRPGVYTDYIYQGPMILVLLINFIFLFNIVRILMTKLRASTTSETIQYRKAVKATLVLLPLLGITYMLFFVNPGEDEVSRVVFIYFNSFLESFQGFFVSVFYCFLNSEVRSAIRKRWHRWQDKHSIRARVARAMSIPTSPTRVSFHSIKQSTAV

[9] = target: Muscarinic acetylcholine receptor M3 (Homo sapiens) (UniProt P20309); assay: Binding affinity to muscarinic M3 (unknown origin) 10 umol/L by radioligand binding assay; details: dose 10.0 µmol/L
Homo sapiens [10] = species: Homo sapiens; assay: Binding affinity to Monoamine transporter (unknown origin) 10 umol/L by radioligand binding assay; details: dose 10.0 µmol/L
Homo sapiens [11] = species: Homo sapiens; assay: Binding affinity to NMDA receptor glycine site (unknown origin) 10 umol/L by radioligand binding assay; details: dose 10.0 µmol/L
Homo sapiens [12] = species: Homo sapiens; assay: Binding affinity to IP3 receptor (unknown origin) 10 umol/L by radioligand binding assay; details: dose 10.0 µmol/L
Homo sapiens [13] = species: Homo sapiens; assay: Binding affinity to Imidazole receptor (unknown origin) 10 umol/L by radioligand binding assay; details: dose 10.0 µmol/L
[14] = target: Substance-K receptor (Homo sapiens) (UniProt P21452); assay: Binding affinity to NK2 receptor (unknown origin) 10 umol/L by radioligand binding assay; details: dose 10.0 µmol/L
[15] = target: Adenosine receptor A1 (Homo sapiens) (UniProt P30542); assay: Binding affinity to A1 receptor (unknown origin) at 10 umol/L by radioligand binding assay; details: dose 10.0 µmol/L
Chain of Adenosine receptor A1 (Homo sapiens) (P30542 whole entry): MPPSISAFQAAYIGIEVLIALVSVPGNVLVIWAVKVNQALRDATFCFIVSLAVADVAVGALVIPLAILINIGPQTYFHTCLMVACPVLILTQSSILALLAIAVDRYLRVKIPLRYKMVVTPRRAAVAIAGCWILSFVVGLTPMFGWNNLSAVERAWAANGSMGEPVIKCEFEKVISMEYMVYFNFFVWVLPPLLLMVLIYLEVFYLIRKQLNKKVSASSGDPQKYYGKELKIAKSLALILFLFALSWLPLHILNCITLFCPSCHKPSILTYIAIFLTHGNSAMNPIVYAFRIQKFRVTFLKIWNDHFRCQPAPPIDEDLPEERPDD

[16] = target: Nociceptin receptor (Homo sapiens) (UniProt P41146); assay: Binding affinity to ORL1 receptor (unknown origin) 10 umol/L by radioligand binding assay; details: dose 10.0 µmol/L
Chain of Nociceptin receptor (Homo sapiens) (P41146 whole entry): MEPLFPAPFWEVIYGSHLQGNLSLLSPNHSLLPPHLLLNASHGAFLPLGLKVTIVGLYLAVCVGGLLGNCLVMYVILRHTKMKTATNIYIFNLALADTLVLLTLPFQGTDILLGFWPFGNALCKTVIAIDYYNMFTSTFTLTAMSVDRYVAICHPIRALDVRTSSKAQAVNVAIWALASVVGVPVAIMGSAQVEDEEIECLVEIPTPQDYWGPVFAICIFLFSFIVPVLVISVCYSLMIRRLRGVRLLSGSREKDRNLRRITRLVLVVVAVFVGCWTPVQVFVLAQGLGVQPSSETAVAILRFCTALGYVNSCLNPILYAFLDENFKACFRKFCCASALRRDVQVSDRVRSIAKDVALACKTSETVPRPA

Homo sapiens [17] = species: Homo sapiens; assay: Binding affinity to ATP-sensitive inward rectifier potassium channel (unknown origin) 10 umol/L by radioligand binding assay; details: dose 10.0 µmol/L
[18] = target: Vasopressin V2 receptor (Homo sapiens) (UniProt P30518); assay: Binding affinity to Vasopressin V2 receptor (unknown origin) 10 umol/L by radioligand binding assay; details: dose 10.0 µmol/L
[19] = target: D(3) dopamine receptor (Homo sapiens) (UniProt P35462); assay: Binding affinity to D3 receptor (unknown origin) 10 umol/L by radioligand binding assay; details: dose 10.0 µmol/L
Chain of D(3) dopamine receptor (Homo sapiens) (P35462 whole entry): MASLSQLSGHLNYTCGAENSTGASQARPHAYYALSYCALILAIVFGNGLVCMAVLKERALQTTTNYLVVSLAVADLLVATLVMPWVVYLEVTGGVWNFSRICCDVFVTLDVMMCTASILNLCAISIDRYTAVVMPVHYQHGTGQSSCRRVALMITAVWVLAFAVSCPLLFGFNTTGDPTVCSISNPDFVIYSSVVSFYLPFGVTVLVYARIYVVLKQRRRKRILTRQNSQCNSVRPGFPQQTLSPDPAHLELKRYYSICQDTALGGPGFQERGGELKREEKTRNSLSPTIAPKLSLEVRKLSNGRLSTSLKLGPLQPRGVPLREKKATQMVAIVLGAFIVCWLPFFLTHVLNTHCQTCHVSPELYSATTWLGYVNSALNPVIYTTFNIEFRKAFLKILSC

[20] = target: Sodium-dependent serotonin transporter (Homo sapiens) (UniProt P31645); assay: Inhibition of serotonin transporter (unknown origin) 10 umol/L by radioligand binding assay relative to control; details: dose 10.0 µmol/L
Chain of Sodium-dependent serotonin transporter (Homo sapiens) (P31645 whole entry, looked up): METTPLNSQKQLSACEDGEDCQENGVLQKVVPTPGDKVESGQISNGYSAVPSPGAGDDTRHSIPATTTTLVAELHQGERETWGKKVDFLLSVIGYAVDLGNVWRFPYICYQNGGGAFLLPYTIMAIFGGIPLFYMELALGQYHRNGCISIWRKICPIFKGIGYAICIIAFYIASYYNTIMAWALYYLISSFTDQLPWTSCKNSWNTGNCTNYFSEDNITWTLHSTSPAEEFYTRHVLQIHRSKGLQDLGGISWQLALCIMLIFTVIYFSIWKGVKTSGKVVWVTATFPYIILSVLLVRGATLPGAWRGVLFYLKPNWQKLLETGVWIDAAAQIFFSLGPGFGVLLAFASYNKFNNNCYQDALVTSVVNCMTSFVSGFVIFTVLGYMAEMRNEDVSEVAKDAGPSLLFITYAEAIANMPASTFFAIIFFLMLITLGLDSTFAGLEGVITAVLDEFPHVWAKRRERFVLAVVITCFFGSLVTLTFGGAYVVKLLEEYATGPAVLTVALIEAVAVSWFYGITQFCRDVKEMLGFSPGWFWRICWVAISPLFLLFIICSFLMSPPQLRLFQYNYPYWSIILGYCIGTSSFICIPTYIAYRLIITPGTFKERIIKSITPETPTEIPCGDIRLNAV

Homo sapiens [21] = species: Homo sapiens; assay: Binding affinity to nACh receptor (unknown origin) 10 umol/L by radioligand binding assay; details: dose 10.0 µmol/L
[22] = target: Metabotropic glutamate receptor 3 (Homo sapiens, UniProt Q14832); assay: Agonist activity at human mGlu3 receptor expressed in CHO cell membranes by GTPgammaS binding assay; type: functional, Cell membrane
[23] = target: Cholecystokinin receptor type A (Homo sapiens) (UniProt P32238); assay: Binding affinity to CCKA (unknown origin) 10 umol/L by radioligand binding assay; details: dose 10.0 µmol/L
[24] = target: Voltage-gated L-type calcium channel (Homo sapiens, UniProt Q13936+Q13698+Q01668+O60840); assay: Binding affinity to Voltage-dependent L-type calcium channel benzothiazepine site (unknown origin) 10 umol/L by radioligand binding assay; type: protein assay; details: 10 µM, dose 10 µmol/L
[25] = target: Kappa-type opioid receptor (Homo sapiens) (UniProt P41145); assay: Binding affinity to kappa receptor (unknown origin) 10 umol/L by radioligand binding assay; details: dose 10.0 µmol/L
Homo sapiens [26] = species: Homo sapiens; assay: Binding affinity to Small conductance calcium-activated potassium channel (unknown origin) 10 umol/L by radioligand binding assay; details: dose 10.0 µmol/L
[27] = target: D(1A) dopamine receptor (Homo sapiens) (UniProt P21728); assay: Binding affinity to D1 receptor (unknown origin) 10 umol/L by radioligand binding assay; details: dose 10.0 µmol/L
[28] = target: Cannabinoid receptor 1 (Homo sapiens) (UniProt P21554); assay: Binding affinity to CB1 (unknown origin) 10 umol/L by radioligand binding assay; details: dose 10.0 µmol/L
[29] = target: Vasoactive intestinal polypeptide receptor 1 (Homo sapiens) (UniProt P32241); assay: Binding affinity to VIP1 receptor (unknown origin) 10 umol/L by radioligand binding assay; details: dose 10.0 µmol/L
[30] = target: Sigma non-opioid intracellular receptor 1 (Homo sapiens) (UniProt Q99720); assay: Binding affinity to sigma1 receptor (unknown origin) 10 umol/L by radioligand binding assay; details: dose 10.0 µmol/L
[31] = target: 5-hydroxytryptamine receptor 3A (Homo sapiens) (UniProt P46098); assay: Binding affinity to 5-HT3 receptor (unknown origin) 10 umol/L by radioligand binding assay; details: dose 10.0 µmol/L
Chain of 5-hydroxytryptamine receptor 3A (Homo sapiens) (P46098 whole entry): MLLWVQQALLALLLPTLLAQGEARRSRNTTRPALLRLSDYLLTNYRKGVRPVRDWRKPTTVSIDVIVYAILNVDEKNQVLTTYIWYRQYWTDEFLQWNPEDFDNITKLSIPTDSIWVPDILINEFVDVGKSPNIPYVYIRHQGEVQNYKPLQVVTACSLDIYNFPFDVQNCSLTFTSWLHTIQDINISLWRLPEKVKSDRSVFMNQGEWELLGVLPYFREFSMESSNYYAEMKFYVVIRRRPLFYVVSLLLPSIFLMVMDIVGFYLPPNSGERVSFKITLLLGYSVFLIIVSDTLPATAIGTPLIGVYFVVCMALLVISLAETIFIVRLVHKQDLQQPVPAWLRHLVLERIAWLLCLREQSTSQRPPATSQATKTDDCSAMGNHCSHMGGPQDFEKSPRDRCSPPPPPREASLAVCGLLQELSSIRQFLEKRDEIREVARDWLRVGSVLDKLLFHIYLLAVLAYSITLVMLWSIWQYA

Homo sapiens [32] = species: Homo sapiens; assay: Binding affinity to GABAA chloride channel central (unknown origin) 10 umol/L by radioligand binding assay; details: dose 10.0 µmol/L
[33] = target: Delta-type opioid receptor (Homo sapiens) (UniProt P41143); assay: Binding affinity to delta opioid receptor (unknown origin) 10 umol/L by radioligand binding assay; details: dose 10.0 µmol/L
Chain of Delta-type opioid receptor (Homo sapiens) (P41143 whole entry): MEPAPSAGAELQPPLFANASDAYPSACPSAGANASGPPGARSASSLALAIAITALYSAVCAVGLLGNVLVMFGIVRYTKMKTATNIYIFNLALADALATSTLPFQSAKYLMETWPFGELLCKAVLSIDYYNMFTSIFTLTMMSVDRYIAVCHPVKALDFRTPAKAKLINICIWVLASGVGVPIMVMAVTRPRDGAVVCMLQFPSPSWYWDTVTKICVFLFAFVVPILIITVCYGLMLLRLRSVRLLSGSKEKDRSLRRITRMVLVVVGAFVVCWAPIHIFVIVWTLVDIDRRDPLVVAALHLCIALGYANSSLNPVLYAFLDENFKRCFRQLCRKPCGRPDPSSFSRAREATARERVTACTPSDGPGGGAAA

[34] = target: Histamine H1 receptor (Homo sapiens) (UniProt P35367); assay: Binding affinity to H1 receptor (unknown origin) 10 umol/L by radioligand binding assay; details: dose 10.0 µmol/L
Chain of Histamine H1 receptor (Homo sapiens) (P35367 whole entry): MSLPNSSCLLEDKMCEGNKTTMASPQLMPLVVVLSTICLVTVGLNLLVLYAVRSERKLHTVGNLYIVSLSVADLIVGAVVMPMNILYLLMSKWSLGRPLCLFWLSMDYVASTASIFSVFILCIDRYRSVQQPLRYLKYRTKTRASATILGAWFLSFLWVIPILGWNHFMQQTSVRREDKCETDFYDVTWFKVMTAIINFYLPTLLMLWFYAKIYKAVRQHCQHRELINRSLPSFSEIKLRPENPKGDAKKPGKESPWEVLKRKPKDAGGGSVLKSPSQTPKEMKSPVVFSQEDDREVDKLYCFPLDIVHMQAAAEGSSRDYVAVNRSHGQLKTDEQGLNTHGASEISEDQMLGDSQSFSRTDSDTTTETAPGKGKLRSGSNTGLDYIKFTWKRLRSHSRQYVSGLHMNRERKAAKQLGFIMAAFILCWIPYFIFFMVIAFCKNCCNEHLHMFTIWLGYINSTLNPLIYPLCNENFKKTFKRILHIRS

[35] = target: Muscarinic acetylcholine receptor M2 (Homo sapiens) (UniProt P08172); assay: Binding affinity to muscarinic M2 (unknown origin) 10 umol/L by radioligand binding assay; details: dose 10.0 µmol/L
Chain of Muscarinic acetylcholine receptor M2 (Homo sapiens) (P08172 whole entry): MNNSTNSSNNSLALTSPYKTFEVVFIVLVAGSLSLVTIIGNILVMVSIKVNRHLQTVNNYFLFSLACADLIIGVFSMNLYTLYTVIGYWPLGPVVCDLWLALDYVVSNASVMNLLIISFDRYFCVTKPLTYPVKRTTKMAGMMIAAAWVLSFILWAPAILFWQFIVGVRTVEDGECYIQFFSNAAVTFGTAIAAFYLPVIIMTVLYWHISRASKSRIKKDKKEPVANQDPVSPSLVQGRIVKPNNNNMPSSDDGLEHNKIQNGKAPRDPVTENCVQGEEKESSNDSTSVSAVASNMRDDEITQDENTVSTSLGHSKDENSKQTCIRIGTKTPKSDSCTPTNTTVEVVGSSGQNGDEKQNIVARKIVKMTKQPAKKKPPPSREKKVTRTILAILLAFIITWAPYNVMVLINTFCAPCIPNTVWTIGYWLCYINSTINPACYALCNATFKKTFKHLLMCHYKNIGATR

[36] = target: Beta-1 adrenergic receptor (Homo sapiens) (UniProt P08588); assay: Binding affinity to beta1 adrenoreceptor (unknown origin) 10 umol/L by radioligand binding assay; details: dose 10.0 µmol/L
Chain of Beta-1 adrenergic receptor (Homo sapiens) (P08588 whole entry, looked up): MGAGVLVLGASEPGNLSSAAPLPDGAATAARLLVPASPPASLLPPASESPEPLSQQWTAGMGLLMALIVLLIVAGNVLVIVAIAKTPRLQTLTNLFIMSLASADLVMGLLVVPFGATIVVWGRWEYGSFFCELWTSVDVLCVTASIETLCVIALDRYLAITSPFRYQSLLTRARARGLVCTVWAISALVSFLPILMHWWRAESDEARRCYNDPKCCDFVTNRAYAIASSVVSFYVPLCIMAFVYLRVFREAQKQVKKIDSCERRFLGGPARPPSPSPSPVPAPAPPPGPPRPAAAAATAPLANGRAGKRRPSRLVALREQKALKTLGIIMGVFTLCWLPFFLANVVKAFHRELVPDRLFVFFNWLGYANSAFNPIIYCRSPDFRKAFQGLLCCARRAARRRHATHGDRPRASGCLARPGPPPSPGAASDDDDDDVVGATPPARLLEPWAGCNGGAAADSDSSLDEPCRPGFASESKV

[37] = target: Muscarinic acetylcholine receptor M5 (Homo sapiens) (UniProt P08912); assay: Binding affinity to muscarinic M5 (unknown origin) 10 umol/L by radioligand binding assay; details: dose 10.0 µmol/L
Homo sapiens [38] = species: Homo sapiens; assay: Binding affinity to Potassium voltage-gated channel (unknown origin) 10 umol/L by radioligand binding assay; details: dose 10.0 µmol/L
Homo sapiens [39] = species: Homo sapiens; assay: Binding affinity to bombesin receptor (unknown origin) 10 umol/L by radioligand binding assay; details: dose 10.0 µmol/L
[40] = target: Alpha-1B adrenergic receptor (Homo sapiens) (UniProt P35368); assay: Binding affinity to alpha1B adrenoreceptor (unknown origin) 10 umol/L by radioligand binding assay; details: dose 10.0 µmol/L
Chain of Alpha-1B adrenergic receptor (Homo sapiens) (P35368 whole entry): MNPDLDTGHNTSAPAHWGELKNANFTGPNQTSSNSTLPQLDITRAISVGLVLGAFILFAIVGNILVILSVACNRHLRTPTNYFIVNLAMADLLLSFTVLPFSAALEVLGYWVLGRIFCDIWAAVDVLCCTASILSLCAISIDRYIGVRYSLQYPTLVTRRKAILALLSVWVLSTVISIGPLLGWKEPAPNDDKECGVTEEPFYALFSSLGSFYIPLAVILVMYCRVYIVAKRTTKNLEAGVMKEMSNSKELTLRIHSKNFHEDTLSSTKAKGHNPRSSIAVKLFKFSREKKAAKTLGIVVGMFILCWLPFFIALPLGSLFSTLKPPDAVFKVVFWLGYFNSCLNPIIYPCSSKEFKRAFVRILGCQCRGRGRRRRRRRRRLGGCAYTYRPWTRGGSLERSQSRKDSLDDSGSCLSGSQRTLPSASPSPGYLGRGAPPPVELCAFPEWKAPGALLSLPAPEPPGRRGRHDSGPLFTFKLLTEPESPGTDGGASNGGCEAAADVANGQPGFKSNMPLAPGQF

Homo sapiens [41] = species: Homo sapiens; assay: Binding affinity to estrogen receptor (unknown origin) 10 umol/L by radioligand binding assay; details: dose 10.0 µmol/L
[42] = target: Platelet-activating factor receptor (Homo sapiens) (UniProt P25105); assay: Binding affinity to PAF receptor (unknown origin) 10 umol/L by radioligand binding assay; details: dose 10.0 µmol/L
Homo sapiens [43] = species: Homo sapiens; assay: Binding affinity to GABAA receptor BZ central (unknown origin) 10 umol/L by radioligand binding assay; details: dose 10.0 µmol/L
Homo sapiens [44] = species: Homo sapiens; assay: Binding affinity to GABAA receptor agonist site (unknown origin) 10 umol/L by radioligand binding assay; details: dose 10.0 µmol/L

N[C@]1(C(=O)O)[C@H]2[C@@H](C[C@@H]1F)[C@@H]2C(=O)O
75.9 nM: EC50 [22]
inactive: Activity [1] | Activity [2] | Activity [3] | Activity (Homo sapiens [4]) | Activity (Homo sapiens [5]) | Activity (Homo sapiens [6]) | Activity [7] | Activity [8] | Activity [9] | Activity (Homo sapiens [10]) | Activity (Homo sapiens [11]) | Activity (Homo sapiens [12]) | Activity (Homo sapiens [13]) | Activity [14] | Activity [15] | Activity [16] | Activity (Homo sapiens [17]) | Activity [18] | Activity [19] | inhibition [20] | Activity (Homo sapiens [21]) | Activity [23] | Activity [25] | Activity (Homo sapiens [26]) | Activity [27] | Activity [28] | Activity [29] | Activity [30] | Activity [31] | Activity (Homo sapiens [32]) | Activity [33] | Activity [34] | Activity [35] | Activity [36] | Activity [37] | Activity (Homo sapiens [38]) | Activity (Homo sapiens [39]) | Activity [40] | Activity (Homo sapiens [41]) | Activity [42] | Activity (Homo sapiens [43]) | Activity (Homo sapiens [44])
Not Active: Activity [24]

CC(C)[C@@H]1CC[C@@H](C)C[C@H]1OC(=O)O[C@@H](C)OC(=O)[C@H]1[C@@H]2C[C@H](F)[C@@](N)(C(=O)O)[C@@H]21
inactive: Activity [1] | Activity [2] | Activity [3] | Activity (Homo sapiens [4]) | Activity (Homo sapiens [5]) | Activity (Homo sapiens [6]) | Activity [7] | Activity [8] | Activity [9] | Activity (Homo sapiens [10]) | Activity (Homo sapiens [11]) | Activity (Homo sapiens [12]) | Activity (Homo sapiens [13]) | Activity [14] | Activity [15] | Activity [16] | Activity (Homo sapiens [17]) | Activity [18] | Activity [19] | Activity (Homo sapiens [21]) | Activity [23] | Activity [25] | Activity (Homo sapiens [26]) | Activity [27] | Activity [28] | Activity [29] | Activity [30] | Activity [31] | Activity (Homo sapiens [32]) | Activity [33] | Activity [34] | Activity [35] | Activity [36] | Activity [37] | Activity (Homo sapiens [38]) | Activity (Homo sapiens [39]) | Activity [40] | Activity (Homo sapiens [41]) | Activity [42] | Activity (Homo sapiens [43]) | Activity (Homo sapiens [44])
> 30000 nM: EC50 [22]
76%: inhibition [20]
Not Active: Activity [24]
